Experimental data taken from patent publication US20040063662A1, “Selenophene anti-tumor agents” (priority 1996, published 2004).
Values after ≈ are worked out from the molar mass of the structure shown. Values joined by “and” are separate entries in the source; they are usually repeats but may differ in a detail not shown here. Identical values can stand only once. Like-named read-outs stand apart in the source and are kept apart here.

How the values were obtained:
[1] = system: normal human renal cells (RPTEC); assay: Selective cytotoxicity microculture assay, normal human renal cells; type: cell-based
[2] = system: ras-transformed human bronchial epithelial cells (TBE); assay: Selective cytotoxicity microculture assay, ras-transformed bronchial epithelial cells; type: cell-based
[3] = system: human renal carcinoma cells (A-498); assay: Selective cytotoxicity microculture assay, human renal carcinoma
[4] = target: T1, 50:50 mixture of recombinant mouse PKCα and mouse PKCβ2; assay: Protein Kinase C (PKC) screening assay; type: biochemical; conditions: Inhibition of Protein Kinase C
T1 construct: The enzymes are expressed in Sf9 insect cells from recombinant baculovirus and partially purified on DEAE-cellulose and Sephacryl 200 gel filtration
Excerpt: The Protein Kinase C (PKC) screening assay utilized in the following experiments is similar to standard PKC assays used by many investigators. Its primary features are that 1) the assay utilizes a 50:50 mixture of recombinant mouse PKCα and mouse PKCβ2; 2) employs histone as phosphate-accepting substrate; and 3) the PKC enzymatic activity is activated with phosphatidylserine, TPA and low concentration of calcium, so that both calcium and TPA are somewhat limiting for the extent of activation. In this manner the assay is sensitive to inhibitors of PKC activation. A more detailed description of the assay is provided in the following paragraphs.
The recombinant PKC formulation is a mixture (equal parts by activity) of mouse PKCα and mouse PKCβ2. The enzymes are expressed in Sf9 insect cells from recombinant baculovirus and partially purified on DEAE-cellulose and Sephacryl 200 gel filtration. Sufficient PKC is added to each reaction to provide approximately 4 pmols phosphate transferred in 30 minute (per total reaction.) The reaction is linear over the time when 4 pmols of phosphate is transferred and the reaction remains linear well beyond this time frame.
The PKC screening assay is performed in 96 well polystyrene U bottom micro titer plates, in a total reaction volume of 50 ul. Solution manipulations are performed during the assay utilize a Rainin, motorized EDP-plus M8 eight-channel micropipettor.
In some cases 50% DMSO:water, water, or methanol is substituted (if essential) for the solvent. At least 25 μl of the highest concentration sample to be assayed is transferred to a well in a 96 well U-bottom polystyrene assay plate. Serial 5-fold or 10-fold dilutions (depending on the dose-range desired) are made using the EDP-plus M8 eight-channel pipettor in dilute mode and mixing by repipetting. Using the 8-channel pipettor, 2 μl of each dilution is transferred to the appropriate wells of the plate(s) to be used for each assay. Duplicate assays are performed for each dose, with each assay, allowing six wells (half the row) for three-dose assays, or 12 wells (the whole row) for six-dose assays. In general, extracts and fractions are assayed at three doses: 400, 40 an 4 ug/ml, while pure compounds are tested at six doses: 400, 80, 16, 3.2, 0.64, 0.128 ([…]).

[5] = Selective cytotoxicity microculture assay, human renal carcinoma; conditions: human, SCI (selectively cytotoxicity index), GI50 (RPTEC)/GI50 (A-498)
[6] = In vitro activity of glycoside prodrug (preliminary); type: cell-based; conditions: preliminary results
Excerpt: (§1) a. […] Scheme 8 illustrates a procedure utilized for the synthesis of glucoside, galactoside or, glucuronic acid analogs of α-terselenophene: [drawing 60]

[7] = In vivo activity of glycoside prodrug (preliminary); conditions: preliminary results
Excerpt: as §1

[8] = Homo sapiens, RPTEC, read-out: GI50
[9] = Homo sapiens, Epithelial cell, read-out: GI50
[10] = Homo sapiens, A498, A-498 human renal carcinoma

Compound	GI50 [1, 8]	GI50 [2, 9]	IC50 [4]	selectivity ratio [5]	GI50 [3, 10]	other results
COc1cccc2c1C(=O)c1c(O)c3c(c(O)c1C2=O)C[C@@](O)(C(=O)CO)C[C@@H]3O[C@H]1C[C@H](N)[C@H](O)[C@H](C)O1 [compound 123127]	–	–	–	–	–	GI50 [1]: 0.05 µg/mL (≈ 0.092 µM); GI50 [2]: 0.03 µg/mL (≈ 0.0552 µM); GI50 ([3]; A-498 human renal carcinoma): 0.05 µg/mL (≈ 0.092 µM); SCI (selectively cytotoxicity index) ([3]; GI50 (RPTEC)/GI50 (A-498)): 1
c1csc(-c2ccc(-c3cccs3)[se]2)c1 [compound 675347]	20 µg/mL (≈ 67.7 µM)	10 µg/mL (≈ 33.9 µM)	1 × 10^0 μg/ml	< 1	30 µg/mL (≈ 102 µM)	–
O=Cc1ccc(-c2ccc(-c3ccc[se]3)s2)[se]1 [compound 676629]	–	–	0.2 µg/mL (≈ 0.54 µM)	–	–	–
c1c[se]c(-c2ccc(-c3ccc[se]3)[se]2)c1 [compound 674973]	4 µg/mL (≈ 10.3 µM)	4 µg/mL (≈ 10.3 µM)	7 × 10^0 μg/ml	1	3 µg/mL (≈ 7.71 µM)	–
c1c[se]c(-c2ccc(-c3ccc[se]3)s2)c1 [compound 676628]	400 µg/mL (≈ 1170 µM)	100 µg/mL (≈ 292 µM)	1 × 10^0 μg/ml	5	80 µg/mL (≈ 234 µM)	–
O=Cc1ccc(-c2ccc(-c3ccc(C=O)[se]3)[se]2)[se]1 [compound 675245]	–	–	1 × 10^0 μg/ml	–	–	–
O=Cc1ccc(-c2ccc(-c3ccc[se]3)[se]2)[se]1 [compound 675244]	–	–	1 × 10^0 μg/ml	–	–	–
O=Cc1ccc(-c2ccc(-c3ccc[se]3)[nH]2)[se]1 [compound 676634]	–	–	0.8 µg/mL (≈ 2.27 µM)	–	–	GI50 [2]: 0.0003 µg/mL and 0.006 µg/mL; GI50 ([3]; A-498 human renal carcinoma): 0.0006 µg/mL and 0.003 µg/mL
c1csc(-c2ccc(-c3ccc[se]3)s2)c1	–	–	–	–	–	melting point: 103 to 104 °C
OC[C@H]1O[C@@H](OCc2ccc(-c3ccc(-c4cccs4)s3)s2)[C@H](O)[C@@H](O)[C@@H]1O [β-D-glucoside of 2-hydroxymethyl-α-terthiophene]	–	–	–	–	–	in vitro activity [6]: retains; in vivo activity [7]: retains
O=Cc1ccc(-c2ccc(-c3ccc(C=O)s3)[se]2)s1 [compound 675345]	–	–	0.9 µg/mL (≈ 2.56 µM)	–	–	–
c1c[se]c(-c2ccc(-c3ccc[se]3)[nH]2)c1 [compound 676633]	20 µg/mL (≈ 61.5 µM)	10 µg/mL (≈ 30.8 µM)	6 × 10^0 μg/ml	< 1	100 µg/mL (≈ 308 µM)	–
O=Cc1ccc(-c2ccc(-c3cccs3)[se]2)s1 [compound 675346]	–	–	0.5 µg/mL (≈ 1.55 µM)	–	–	–
OCc1ccc(-c2ccc(-c3ccc[se]3)[nH]2)[se]1 [compound 676635]	2 µg/mL (≈ 5.63 µM)	20 µg/mL (≈ 56.3 µM)	8 × 10^0 μg/ml	> 1000	< 0.001 µg/mL	–
O=Cc1ccc(-c2ccc(-c3ccc(C=O)[se]3)s2)[se]1 [compound 676630]	–	–	0.9 µg/mL (≈ 2.26 µM)	–	–	–
OCc1ccc(-c2ccc(-c3cccs3)[se]2)s1 [compound 675344]	–	–	50 µg/mL (≈ 154 µM)	> 1000	–	GI50 [2]: <10^−2 μg/ml and 7 × 10^−6 μg/ml; GI50 ([3]; A-498 human renal carcinoma): 3e-07 µg/mL and 6e-08 µg/mL
